# Measurements as given in patent publication US20070117852A1, “(Hetero)cyclyl carboxanilides for controlling harmful fungi” (priority 2003, published 2007).
# Test system: brown rust of wheat (Puccinia recondita)
# Assay: Protective treatment against brown rust of wheat (plants sprayed the day before inoculation)
# Assay type: in vivo, Puccinia recondita on wheat seedlings cultivar "Kanzler"
# Settings: 63 ppm active compound, assessed visually after a further 7 days in greenhouse, untreated 90
# Method: The active compounds were prepared as a stock solution comprising 0.25% by weight of active compound in acetone or dimethyl sulfoxide (DMSO). 1% by weight of the emulsifier Uniperol® EL (wetting agent having emulsifying and dispersant action based 10 on ethoxylated alkylphenols) was added to this solution, and the mixture was diluted with water to the desired concentration.
# Leaves of potted wheat seedlings of the cultivar “Kanzler” were sprayed to runoff point with an aqueous suspension having the concentration of active compound stated below. The next day, the treated plants were dusted with spores of brown rust of wheat (Puccinia recondita). The plants were then placed in a chamber with high atmospheric humidity (90 to 95%), at 20-22° C., for 24 hours. During this time, the spores germinated and the germinal tubes penetrated into the leaf tissue. The next day, the test plants were returned into the greenhouse and cultivated at temperatures between 20 and 22° C. and at 65 to 70% relative atmospheric humidity for a further 7 days. The extent of the rust development on the leaves was then determined visually.
smiles,measurement,value
"CC(=NOCc1ccccc1)C(C)Oc1ccccc1NC(=O)c1cccnc1Cl (stereo not shown) [IA-1, 2-Chloro-N-(2-(2-benzyloxyimino-1-methyl-n-propoxy)phenyl)nicotinamide]",Infection at 63 ppm (% of leaf area),10 % of leaf area
